Experimental data as given in patent US6376497B1, “Antifungal azole derivatives having a fluorinated vinyl group and process for preparing same” (Korea Research Institute of Chemical Technology, priority 1999, dated 2002).
Values after ≈ are worked out from the molar mass of the structure shown. Like-named read-outs stand apart in the source and are kept apart here.

How the values were obtained:
mouse = settings: oral; cited from earlier work
[1] = tested on: Trichophyton mentagrophytes B. 32663; test: In vitro antifungal activity, microbroth dilution MIC; type: cell-based; settings: Trichophyton mentagrophytes
How it was run: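 Broth microdilution adapted from NCCLS M27, in RPMI-1640 with 0.165 M MOPS, pH 7.0. Yeast or mould inoculum at 2×10^3 CFU/ml was mixed 1:1 with DMSO-derived compound solutions (200 to 0.10 μg/ml before mixing) and incubated at 35 °C for 4 to 48 h. MIC was the concentration showing no growth.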

[2] = B.32663, RPMI-1640, 35° C., 4 to 48 hours, no growth observed, read-out: Minimal inhibitory concentration(MIC), T. mentagrophytes B. 32663
[3] = B.32663, RPMI-1640, 35° C., no growth observed, read-out: Minimal inhibitory concentration (MIC), T. mentagrophytes B. 32663
[4] = T. mentagrophytes B. 32663, RPMI-1640, 35° C., 4 to 48 hours, read-out: Minimal inhibitory concentration (MIC)

| Compound | LD50 (mouse) [mg/kg] | MIC [1, 2] [µg/mL] | MIC [1, 3] [µg/mL] | MIC [1, 4] [µg/mL] |
| --- | --- | --- | --- | --- |
| CCC(C)n1ncn(-c2ccc(N3CCN(c4ccc(OCC5COC(Cn6cncn6)(c6ccc(Cl)cc6Cl)O5)cc4)CC3)cc2)c1=O (stereo not shown) [itraconazole, reference compound] | 320 | ≤ 0.1 | ≤ 0.1 | ≤ 0.1 |
| OC(Cn1cncn1)(Cn1cncn1)c1ccc(F)cc1F [fluconazole, reference compound] |  | 12.5 (≈ 40.8 µM) | 12.5 (≈ 40.8 µM) | 12.5 (≈ 40.8 µM) |
